For this data set the following is noted: amide bond, DMF.
Where [1] appears, read: PyBOP/HOBt/NMM, 16.0 h, 15 steps.
[2] abbreviates: PyBOP/HOBt/NMM, 16.0 h, 17 steps.

Where two headings read alike, the source gives them in different places.

`C[C@@H]1NC(=O)[C@H](CO)NC(=O)[C@H](C)NC(=O)[C@H](Cc2ccc(O)cc2)NC(=O)[C@H](CC(N)=O)NC(=O)CNC1=O` [cyclo(-Tyr-Ala-Ser-Ala-Gly-Asn-)]: under setting [1], the ring closure, yield of all isomers amounted to 4.3%. Under setting [2], `C[C@@H]1NC(=O)CNC(=O)[C@@H]2C[C@@H](O)CN2C(=O)[C@@H]2CCCN2C(=O)[C@H](Cc2ccc(O)cc2)NC(=O)[C@H](CC(N)=O)NC(=O)CNC1=O` [Cyclo(Tyr-Pro-4Hyp-Gly-Ala-Gly-Asn)] showed a ring closure, yield of all isomers of 7%. Same read-out and setting: for `C[C@@H]1NC(=O)CNC(=O)[C@H](CC(N)=O)NC(=O)[C@H](Cc2ccc(O)cc2)NC(=O)[C@@H]2CCCN2C(=O)[C@@H]2C[C@@H](O)CN2C(=O)CNC1=O` [cyclo(-Gly-Ala-Gly-Hyp-Pro-Tyr-Asn-)] the value was 6.2%.

Turning to `NC(=O)C[C@@H]1NC(=O)CNC(=O)[C@H](Cc2ccc(O)cc2)NC(=O)[C@H](CC(N)=O)NC(=O)CNC(=O)[C@H](Cc2ccc(O)cc2)NC1=O` [cyclo(-Tyr-Gly-Asn-Tyr-Gly-Asn-)], the ring closure, yield of all isomers (PyBOP, 16 steps) turned out to be 14%.

In turn, `C[C@@H]1NC(=O)CNC(=O)[C@H](CCC(N)=O)NC(=O)[C@H](Cc2ccc(O)cc2)NC(=O)[C@@H]2CCCN2C(=O)[C@@H]2C[C@@H](O)CN2C(=O)CNC1=O` [cyclo(-Gly-Ala-Gly-Hyp-Pro-Tyr-Gln-)] showed a ring closure, yield of all isomers under setting [2] of 6.6%. In turn, `C[C@@H]1NC(=O)CNC(=O)[C@@H]2C[C@@H](O)CN2C(=O)[C@@H]2CCCN2C(=O)[C@H](Cc2ccc(O)cc2)NC(=O)[C@H](CC(N)=O)NC1=O` [Cyclo(Tyr-Pro-4Hyp-Gly-Ala-Asn)] displayed a ring closure, yield of all isomers under setting [1] of 4.4%.
